Test results: ChEMBL document CHEMBL2074319, “The antiviral nucleotide analogs cidofovir and adefovir are novel substrates for human and rat renal organic anion transporter 1” (Mol Pharmacol, 1999)

What was measured:
[1] = biological target: T1, Solute carrier family 22 member 6 (Homo sapiens, UniProt Q4U2R8); test: TP_TRANSPORTER: inhibition of PAH uptake (PAH: 50 uM, 2,4-D: 1000 uM) in Xenopus laevis oocytes; format: functional, cell-based; conditions: oocyte
T1 sequence (Q4U2R8 whole entry): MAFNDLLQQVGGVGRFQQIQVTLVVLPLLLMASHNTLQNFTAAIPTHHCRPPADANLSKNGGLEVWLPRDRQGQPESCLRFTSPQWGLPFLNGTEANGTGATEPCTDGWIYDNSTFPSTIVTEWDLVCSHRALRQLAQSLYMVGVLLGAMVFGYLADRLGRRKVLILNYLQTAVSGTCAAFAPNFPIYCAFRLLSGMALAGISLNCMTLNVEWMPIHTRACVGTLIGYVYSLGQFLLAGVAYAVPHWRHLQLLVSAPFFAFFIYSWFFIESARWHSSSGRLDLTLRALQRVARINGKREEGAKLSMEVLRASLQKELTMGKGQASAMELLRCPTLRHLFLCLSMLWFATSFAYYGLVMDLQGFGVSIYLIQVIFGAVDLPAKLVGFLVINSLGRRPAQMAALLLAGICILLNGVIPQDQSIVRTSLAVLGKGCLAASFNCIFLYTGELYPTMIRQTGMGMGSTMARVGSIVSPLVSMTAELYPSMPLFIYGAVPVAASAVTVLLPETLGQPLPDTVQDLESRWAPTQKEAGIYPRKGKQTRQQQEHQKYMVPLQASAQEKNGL

[2] = biological target: T1, Solute carrier family 22 member 6; test: (§1) TP_TRANSPORTER: uptake in Xenopus laevis oocytes; format: functional, cell-based; conditions: oocyte
[3] = biological target: T2, Solute carrier family 22 member 6 (Rattus norvegicus, UniProt O35956); test: as §1; format: functional, cell-based; conditions: oocyte
T2 sequence (O35956 whole entry): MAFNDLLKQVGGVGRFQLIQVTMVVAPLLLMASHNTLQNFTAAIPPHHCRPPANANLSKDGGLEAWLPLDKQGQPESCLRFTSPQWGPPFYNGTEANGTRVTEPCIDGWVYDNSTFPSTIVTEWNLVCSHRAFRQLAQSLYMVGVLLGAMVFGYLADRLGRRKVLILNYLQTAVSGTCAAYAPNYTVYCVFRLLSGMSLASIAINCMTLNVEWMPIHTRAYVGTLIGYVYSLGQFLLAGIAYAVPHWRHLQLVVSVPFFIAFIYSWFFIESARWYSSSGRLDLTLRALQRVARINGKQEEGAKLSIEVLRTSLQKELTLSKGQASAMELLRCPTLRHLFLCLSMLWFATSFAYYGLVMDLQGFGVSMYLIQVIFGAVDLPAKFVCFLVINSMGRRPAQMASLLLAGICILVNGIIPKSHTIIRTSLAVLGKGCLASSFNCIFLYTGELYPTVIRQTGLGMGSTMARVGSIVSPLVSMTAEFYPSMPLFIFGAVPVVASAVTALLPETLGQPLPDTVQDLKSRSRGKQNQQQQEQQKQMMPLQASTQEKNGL

[4] = biological target: T1, Solute carrier family 22 member 6; test: TP_TRANSPORTER: inhibition of PAH uptake (PAH: 50 uM, BCG: 1000 uM) in Xenopus laevis oocytes; format: functional, cell-based; conditions: oocyte
[5] = biological target: T1, Solute carrier family 22 member 6; test: TP_TRANSPORTER: inhibition of PAH uptake (PAH: 50 uM, alpha-KG: 1000 uM) in Xenopus laevis oocytes; format: functional, cell-based; conditions: oocyte
[6] = substrate: Nc1ccn(C[C@@H](CO)OCP(=O)(O)O)c(=O)n1; test: as §1; format: functional, cell-based, Oocyte
[7] = substrate: Nc1ncnc2c1ncn2CCOCP(=O)(O)O; test: as §1; format: functional, cell-based, Oocyte

O=C(O)COc1ccc(Cl)cc1Cl [2,4-DICHLOROPHENOXYACETIC ACID]
Activity [1]: inhibitor [(at a rough estimate) <5 % of control]

Nc1nc2c(ncn2CCOCP(=O)(O)O)c(=O)[nH]1 [GS-438]
Activity [2]: substrate [+] | Activity [3]: substrate [+]

Nc1nc(N)c2ccn(CCOCP(=O)(O)O)c2n1
Activity [2]: substrate [+] | Activity [3]: substrate [+]

Cc1c(C2(c3cc(Br)c(O)c(Br)c3C)OS(=O)(=O)c3ccccc32)cc(Br)c(O)c1Br [BROMCRESOL GREEN]
Activity [4]: inhibitor [(at a rough estimate) <5 % of control]

O=C(O)CCC(=O)C(=O)O [ALPHA-KETOGLUTARIC ACID]
Activity [5]: inhibitor [(at a rough estimate) 5 % of control]

B1: Solute carrier family 22 member 6 (Rattus norvegicus) (protein)
chain: MAFNDLLKQVGGVGRFQLIQVTMVVAPLLLMASHNTLQNFTAAIPPHHCRPPANANLSKDGGLEAWLPLDKQGQPESCLRFTSPQWGPPFYNGTEANGTRVTEPCIDGWVYDNSTFPSTIVTEWNLVCSHRAFRQLAQSLYMVGVLLGAMVFGYLADRLGRRKVLILNYLQTAVSGTCAAYAPNYTVYCVFRLLSGMSLASIAINCMTLNVEWMPIHTRAYVGTLIGYVYSLGQFLLAGIAYAVPHWRHLQLVVSVPFFIAFIYSWFFIESARWYSSSGRLDLTLRALQRVARINGKQEEGAKLSIEVLRTSLQKELTLSKGQASAMELLRCPTLRHLFLCLSMLWFATSFAYYGLVMDLQGFGVSMYLIQVIFGAVDLPAKFVCFLVINSMGRRPAQMASLLLAGICILVNGIIPKSHTIIRTSLAVLGKGCLASSFNCIFLYTGELYPTVIRQTGLGMGSTMARVGSIVSPLVSMTAEFYPSMPLFIFGAVPVVASAVTALLPETLGQPLPDTVQDLKSRSRGKQNQQQQEQQKQMMPLQASTQEKNGL
Km [6]: 238 µM | Km [7]: 270 µM

B2: Solute carrier family 22 member 6 (Homo sapiens) (protein)
chain: MAFNDLLQQVGGVGRFQQIQVTLVVLPLLLMASHNTLQNFTAAIPTHHCRPPADANLSKNGGLEVWLPRDRQGQPESCLRFTSPQWGLPFLNGTEANGTGATEPCTDGWIYDNSTFPSTIVTEWDLVCSHRALRQLAQSLYMVGVLLGAMVFGYLADRLGRRKVLILNYLQTAVSGTCAAFAPNFPIYCAFRLLSGMALAGISLNCMTLNVEWMPIHTRACVGTLIGYVYSLGQFLLAGVAYAVPHWRHLQLLVSAPFFAFFIYSWFFIESARWHSSSGRLDLTLRALQRVARINGKREEGAKLSMEVLRASLQKELTMGKGQASAMELLRCPTLRHLFLCLSMLWFATSFAYYGLVMDLQGFGVSIYLIQVIFGAVDLPAKLVGFLVINSLGRRPAQMAALLLAGICILLNGVIPQDQSIVRTSLAVLGKGCLAASFNCIFLYTGELYPTMIRQTGMGMGSTMARVGSIVSPLVSMTAELYPSMPLFIYGAVPVAASAVTVLLPETLGQPLPDTVQDLESRWAPTQKEAGIYPRKGKQTRQQQEHQKYMVPLQASAQEKNGL
Km [6]: 46 µM | Km [7]: 30 µM
